Test results: US5639779A, “Indole derivatives as 5-HT1-like agonists” (Pfizer Inc., priority 1992, dated 1997)

What was measured:
[1] = tested on: carotid vascular resistance / carotid arterial blood flow; conditions: anaesthetized dog; cited from earlier work
conscious dogs = assay: acute toxicity in conscious dogs; type: in vivo, dog; conditions: doses of up to 1 mg/Kg i.v.
[2] = molecular target: T1, "5-HT1 -like" receptor (dog isolated saphenous vein strip) (Canis lupus familiaris, UniProt P79250); assay: contraction of dog isolated saphenous vein strip (5-HT1-like receptor agonist activity); type: cell-based; conditions: in vitro; for RELATIVE POTENCY EC50 (compound)/EC50 (5-HT): ratio to 5-HT; for EC50: read-out: EC50 (concentration of compound which causes 50% of the maximum contraction effected by it)
T1 construct: contracting the isolated dog saphenous vein strip; from tissue; host or cells: dog isolated saphenous vein strip
T1 sequence (P79250 whole entry): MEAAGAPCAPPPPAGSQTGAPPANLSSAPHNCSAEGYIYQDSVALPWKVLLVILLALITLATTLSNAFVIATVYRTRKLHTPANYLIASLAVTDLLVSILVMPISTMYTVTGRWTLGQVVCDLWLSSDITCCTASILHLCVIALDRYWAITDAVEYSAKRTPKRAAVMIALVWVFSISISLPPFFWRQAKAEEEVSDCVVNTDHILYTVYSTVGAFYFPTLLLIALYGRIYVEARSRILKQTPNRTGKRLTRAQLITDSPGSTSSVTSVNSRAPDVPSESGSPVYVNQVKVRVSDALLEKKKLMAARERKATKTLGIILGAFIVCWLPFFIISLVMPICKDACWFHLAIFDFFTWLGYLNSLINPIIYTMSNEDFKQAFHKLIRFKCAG
Protocol: The in vitro evaluation of the "5-HT1 -like" receptor agonist activity of the compounds of the invention is carried out by testing the extent to which they mimic sumatriptan in contracting the isolated dog saphenous vein strip (P. P. A. Humphrey et al., Brit. J. Pharmacol., 1988, 94, 1123).
The following Table illustrates the in vitro activities for a range of the Compounds of the invention on dog isolated saphenous vein strip. EC50 represents the concentration of compound which causes 50% of the maximum contraction effected by it.

[3] = molecular target: T1, "5-HT1 -like" receptor (dog isolated saphenous vein strip); conditions: effect of sumatriptan-like contraction blocked by a known 5-HT antagonist; cited from earlier work

| SMILES | carotid arterial blood flow [1] | signs of adverse acute toxicity (conscious dogs) | RELATIVE POTENCY EC50 (compound)/EC50 (5-HT) [2] | EC50 [2] | blockade of contraction of dog saphenous vein strip [3] |
| --- | --- | --- | --- | --- | --- |
| CNS(=O)(=O)Cc1ccc2[nH]cc(CCN(C)C)c2c1 [Sumatriptan] | consequent decrease |  |  |  |  |
| CCS(=O)(=O)CCc1ccc2[nH]cc(C[C@H]3CCCN3CC=C(C)C)c2c1 [Example 8, 5-(2-Ethylsulphonylethyl)-3-[N-(3-methyl-2-butenyl)-2(R)-pyrrolidinylmethyl]-1H-indole] |  | no signs of adverse acute toxicity | 2.5 | 190 nM |  |
| NS(=O)(=O)C=Cc1ccc2[nH]cc(C[C@H]3CCCN3CC3CC3)c2c1 [Example 44, 3-(N-Cyclopropylmethyl-2(R)-pyrrolidinomethyl)-5-(2-sulphamoylethenyl)-1H-indole] |  |  | 2.7 | 180 nM |  |
| CCS(=O)(=O)CCc1ccc2[nH]cc(C[C@H]3CCCN3Cc3ccccn3)c2c1 [Example 1, 5-(2-Ethylsulphonylethyl)-3-[N-[2-pyridylmethyl)-2(R)-pyrrolidinylmethyl]-1H-indole] |  |  | 9.4 | 430 nM |  |
| CCS(=O)(=O)CCc1ccc2[nH]cc(C[C@H]3CCCN3CCOC)c2c1 [Example 4, 5-(2-Ethylsulphonylethyl)-3-[N-(2-methoxyethyl)-2-(R)-pyrrolidinylmethyl]-1H-indole] |  |  | 2.3 | 120 nM |  |
| CCS(=O)(=O)CCc1ccc2[nH]cc(C[C@H]3CCCN3CC[S+]([O-])c3ccccc3)c2c1 (single isomer, unassigned) [Example 37A] |  |  | 4.6 | 290 nM |  |
| CCS(=O)(=O)CCc1ccc2[nH]cc(C[C@H]3CCCN3CCc3ccccn3)c2c1 [Example 36] |  |  | 11.0 | 290 nM |  |
| CCS(=O)(=O)CCc1ccc2[nH]cc(C[C@H]3CCCN3CCC(C)=O)c2c1 [Example 31, 5-(2-Ethylsulphonylethyl)-3-[N-{3-oxo-1-butyl)-2(R)-pyrrolidinylmethyl]-1H-indole] |  |  | 1.9 | 31 nM |  |
| CCS(=O)(=O)CCc1ccc2[nH]cc(C[C@H]3CCCN3CCC(N)=O)c2c1 [Example 34] |  |  | 1.4 | 62 nM |  |
| CSc1ccc2c(c1)C(N1CCN(C)CC1)Cc1ccccc1S2 (stereo not drawn) [methiothepin] |  |  |  |  | can be blocked |
| CC(=O)CCN1CCC[C@@H]1Cc1c[nH]c2ccc(CCS(=O)(=O)c3ccccc3)cc12 [Example 38, 3-[N-(3-Oxo-1-butyl)-2-(R)-pyrroldinylmethyl]-5-(2phenylsulphonylethyl)-1H-indole] |  |  | 3.4 | 440 nM |  |
| CCS(=O)(=O)CCc1ccc2[nH]cc(C[C@H]3CCCN3CCO)c2c1 [Example 26, 5-(2-Ethylsulphonylethyl)-3-[N-(2-hydroxyethyl)-2(R)pyrrolidinylmethyl]-1H-indole] |  |  | 3.8 | 160 nM |  |
| CCS(=O)(=O)CCc1ccc2[nH]cc(C[C@H]3CCCN3C3CCCC3)c2c1 [Example 9, 3-(N-Cyclopentyl-2(R)-pyrrolidinylmethyl)-5-(2-ethylsulphonylethyl)-1H-indole] |  |  | 1.8 | 82 nM |  |
| O=S(=O)(CCc1ccc2[nH]cc(C[C@H]3CCCN3C3CCCC3)c2c1)c1ccccc1 [Example 21, 3-(N-Cyclopentyl-2(R)-pyrrolidinylmethyl)-5-(2-phenylsulphonylethyl)-1H-indole] |  |  | 4.9 | 560 nM |  |
| CCS(=O)(=O)CCc1ccc2[nH]cc(C[C@H]3CCCN3C(C)c3ccccc3)c2c1 (mixture of isomers) [Example 13, 5-(2-Ethylsulphonylethyl)-3-{N-(1(R,S)-phenylethyl]-2(R)-pyrrolidinylmethyl}-1H-indole] |  | no signs of adverse acute toxicity | 1.4 | 71 nM |  |
